# Test results as given in US10400242B2, “Methods for treating acute myeloid leukemia and nanoparticle complexes of miR-22 utilized therein” (University of Cincinnati, priority 2016, dated 2019).
# Assays:
# THP-1 cells = experiment: ATRA-treatment study, gene expression (qPCR) in THP-1 cells; format: cell-based, human; conditions: 1 μM ATRA, 72 hours, vs DMSO
# Method: Total RNA was extracted with the miRNeasy extraction kit (Qiagen, Valencia, Calif.) and was used as template to synthesize cDNA for quantitative RT-PCR (qPCR) analysis in a 7900HT real-time PCR system (Applied Biosystems, Foster City, Calif.). TaqMan qPCR assay was performed to validate the differential expression patterns of miR-22 using commercial kits from Applied Biosystems (Cat. #4427975). Sequences for the controls are: sno202: 5′-[…]-3′ (SEQ ID NO: 1); RNU6B: 5′-[…]-3′ (SEQ ID NO: 4). qPCR with SYBR Green dye (Qiagen) was used to determine expression of mRNA genes. snoRNA202, RNU48, Gapdh or GAPDH were used as endogenous controls for qPCR of miRNA and mRNA, respectively. Each sample was run in triplicate. qPCR primers are available upon request. For determining the miR-22 DNA locus copy number, TaqMan qPCR assay was used as described previously^57.
# (§1) For the ATRA-treatment study, THP-1 cells were seeded at a concentration of 0.4×10^6/mL and treated with ATRA (1 μmol/L) or vehicle control (DMSO, 0.001%) for 72 hours before cells were collected for RNA analysis or CUP assays.
# miR-22 promoter region = experiment: ChIP-qPCR of miR-22 promoter region in ATRA-treated THP-1 cells; format: cell-based, human; conditions: 1 μM ATRA, 72 hours
# Method: as §1
# ChIP assay was performed, as described previously^14, 17, with SABiosciences Corporation's ChampionChiP™ One-Day kit (Qiagen, Frederick, Md.) following the manufacturer's protocol, with some modifications. Briefly, pellets of 5×10^6 cells were treated with fresh fixing buffer (1% formaldehyde) for 10 min at 37° C. to crosslink DNA and proteins. The reaction was terminated by the addition of stop buffer and incubated at room temperature for 5 min. After cell lysis, the cross-linked chromatin was sonicated to an average size of ˜500 bp and was immunoprecipitated with antibodies against TET1, GFI1 (Santa Cruz Biotechnology Inc., Santa Cruz, Calif.), the N′-terminal portion of MLL (MLL-N), the C′-terminal of MLL (MLL-C), H3K27Me3, H3K4Me3, RNA polymerase II, EZH2, SIN3A or IgG (Abcam, Cambridge, Mass.). Purified ChIP DNA was amplified by real-time qPCR using specific primers targeting the CpG-enriched upstream region of human miR-22: Forward: 5′-GTT GTT GGA GTC GTG AGT G-3′ (SEQ ID NO: 15); reverse: 5′-CGC TCC ACC TTT CCT TAA A-3′ (SEQ ID NO: 16); or mouse miR-22: Forward: 5′-TGA ATG GGC GGG AGT AA-3′ (SEQ ID NO: 17); reverse: 5′-CCAC GAG CTG CGA ATG AA-3′ (SEQ ID NO: 18).
# miR-22 promoter = experiment: Bisulfite sequencing of miR-22 promoter in ATRA-treated THP-1 cells; format: cell-based, human; conditions: 1 μM ATRA or DMSO, 72 hrs
# MONOMAC-6 cells [1] = experiment: Cellular uptake of dendrimers in MONOMAC-6 cells; format: cell-based, human
# Source text: (§2) In order to selectively deliver miR-22 oligos to FLT3-expressing AML cells, Poly(amidoamine) (PAMAM) dendrimers (Hong S, et al. Bioconjugate Chemistry. 2006; 17:728-34, Hong S, et al. Bioconjugate Chemistry. 2009; 20:1503-13, and Sunoqrot S, et al. J Control Release. 2014; 191:115-22, incorporated herein by reference) are selected as the basis of the nanoparticle carriers, and conjugated with the near-infrared dye Cyanine 5.5 (Cy5.5) for monitoring the dynamic distributions of the nanoparticles, and FLT3 ligand (FLT3L) proteins for specific targeting FLT3 on the cell surface. H2B, a nuclear histone protein with similar molecular weight as FLT3L, was conjugated as a negative control. G7-FLT3L dendrimers will efficiently and selectively target AML cells with FLT3 overexpression.
# U937 cells = experiment: Cellular uptake of dendrimers in U937 cells; format: cell-based; conditions: U937 cells (very low levels of FLT)
# Source text: as §2
# MONOMAC-6 cells [2] = experiment: Viability and apoptosis of MONOMAC-6 cells treated with dendrimers; format: cell-based, human; conditions: compared with PBS
Molecule,WDR81 level (THP-1 cells),"expression of TET1, EZH2 and SIN3A (THP-1 cells)",expression of TET2 or TET3 (down-regulation) (THP-1 cells),increase in miR-22 expression level (THP-1 cells),transcription level of GFI1 (THP-1 cells),H3K4Me3 modifications at miR-22 promoter region (miR-22 promoter region),H3K27me3 modifications at miR-22 promoter region (miR-22 promoter region),RNA polymerase II occupancy at miR-22 promoter region (miR-22 promoter region),"binding of GFI1, TET1, EZH2 and SIN3A to the miR-22 promoter region (miR-22 promoter region)",binding of MLL protein to the miR-22 promoter region (reduction) (miR-22 promoter region),methylation status of the miR-22 promoter (miR-22 promoter),"one-hour uptake ratio (MONOMAC-6 cells [1]; FLT3-overexpressing AML cells, one hour) [%]",uptake ratio after suppression of endogenous FLT3 expression (MONOMAC-6 cells [1]; MONOMAC-6 cells overexpressing miR-22),"uptake ratio after 24 hours' treatment (MONOMAC-6 cells [1]; MONOMAC-6 cells, 24 hours, G7-FLT3L vs G7-H2B control)","uptake ratios, G7-FLT3L vs G7-H2B (U937 cells)",viability and apoptosis (cytotoxicity) (MONOMAC-6 cells [2])
"CC1=C(/C=C/C(C)=C/C=C/C(C)=C/C(=O)O)C(C)(C)CCC1 [ATRA, all-trans-retinoic acid]",no significant effects,significantly down-regulated,not,more than 5 fold,substantially reduced,no significant change,significantly decreased,increased,remarkably reduced,not,hypomethylated,,,,,
"G7-FLT3L dendrimers: FLT3L-conjugated Generation 7 (G7) PAMAM dendrimers, Cy5.5-labelled, targeting FLT3 on AML cells (conjugate) TQDCSFQHSPISSDFAVKIRELSDYLLQDYPVTVASNLQDEELCGGLWRLVLAQRWMERLKTVAGSKMQGLLERVNTEIHFVTKCAFQPPPSCLRFVQTNISRLLQETSEQLVALKPWITRQNFSRCLELQCQPDSSTLPPPWSPRPLEATAPTA",,,,,,,,,,,,23.6,significant decrease,significantly higher,no significant difference,"low, if any, cytotoxicity"
